Test results taken from US20120328569A1, “INHIBITORS OF HEPATITIS C VIRUS NS5B POLYMERASE” (priority 2010, published 2012).

The compounds below were run on HCV genotype 1b replicon (assay: HCV replicon assay, cell ELISA with antibody to replicon-encoded NS3/4A (genotype 1b replicon)). Conditions: Hepatitis C virus, 96 h, read-out: Replicon 1b IC50 (nM), HCV genotype 1b replicon cells, 96 hours incubation, NS3/4A ELISA readout.
Type: cell-based, hepatitis C virus
Procedure: The HCV NS5B inhibitory activity of the present compounds may be tested using assays known in the art. The HCV NS5B polymerase inhibitors described herein have activities in a genotype 1b replicon assay as described in the Examples. The assay is performed by incubating a replicon harboring cell-line in the presence of inhibitor for a set period of time and measuring the effect of the inhibitor on HCV replicon replication either directly by quantifying replicon RNA level, or indirectly by measuring enzymatic activity of a co-encoded reporter enzyme such as luciferase or β-lactamase. By performing a series of such measurements at different inhibitor concentrations, the effective inhibitory concentration of the inhibitor (EC50 or EC90) is determined. See Jan M. Vrolijk et al., A replicons-based bioassay for the measurement of interferons in patients with chronic hepatitis C, 110 J. VIROLOGICAL METHODS 201 (2003). Such assays may also be run in an automated format for high through-put screening. See Paul Zuck et al., A cell-based β-lactamase reporter gene assay for the identification of inhibitors of hepatitis C virus replication, 334 ANALYTICAL BIOCHEMISTRY 344 (2004).
Measurement of inhibition by compounds was performed using the HCV replicon system. Several different replicons encoding different HCV genotypes or mutations were used. In addition, potency measurements were made using different formats of the replicon assay, including different ways of measurements and different plating formats. See Jan M. Vrolijk et al., A replicons-based bioassay for the measurement of interferons in patients with chronic hepatitis C, 110 J. VIROLOGICAL METHODS 201 (2003); Steven S. Carroll et al., Inhibition of Hepatitis C Virus RNA Replication by 2′-Modified Nucleoside Analogs, 278(14) J. BIOLOGICAL CHEMISTRY 11979 (2003). However, the underlying principles are common to all of these determinations, and are outlined below.
Stable neomycin phosphotransferase encoding replicons-harboring cell lines were used, so all cell lines were maintained under G418 selection prior to the assay. Potency was determined using a cell ELISA assay with an antibody to the replicons encoded NS3/4a protease. See Caterina Trozzi et al., In Vitro Selection and Characterization of Hepatitis C Virus Serine Protease Variants Resistant to an Active-Site Peptide Inhibitor, 77(6) J. Virol. 3669 (2003). To initiate an assay, replicon cells were plated in the presence of a dilution series of test compound in the absence of G418. Typically, the assays were performed in a 96-well plate formate for manual operation, or a 384-well plate format for automated assay. Replicon cells and compound were incubated for 96 hours. At the end of the assay, cells were washed free of media and compound, and the cells were then lysed. RNA was quantified indirectly through detection of replicon-encoded NS3/4A protein levels, through an ELISA-based assay with an antibody specific for NS3/4A. IC50 determinations were calculated as a percentage of a DMSO control by fitting the data to a four-parameter fit function and the data obtained is provided in the table below.

| SMILES | IC50 [nM] |
| --- | --- |
| CCCCCN(c1cc2oc(-c3ccc(F)cc3)c(C(=O)NC)c2cc1-c1ccccc1)S(C)(=O)=O [Example 20, 2-(4-fluorophenyl)-N-methyl-6-[(methylsulfonyl) (pentyl)amino]-5-phenyl-1-benzofuran-3-carboxamide] | 66 |
| CNC(=O)c1c(-c2ccc(F)cc2)oc2cc(N(CC3CCC3)S(C)(=O)=O)c(-c3ccccc3)cc12 [Example 21, 6-[(cyclobutylmethyl) (methylsulfonyl)amino]-2-(4-fluorophenyl)-N-methyl-5-phenyl-1-benzofuran-3-carboxamide] | 115 |
| CNC(=O)c1c(-c2ccc(F)cc2)oc2cc(N(C3CCCC3)S(C)(=O)=O)c(-c3ccccc3)cc12 [Example 22, 6-[cyclopentyl (methylsulfonyl)amino]-2-(4-fluorophenyl)-N-methyl-5-phenyl-1-benzofuran-3-carboxamide] | 55 |
| CCC(CC)CN(c1cc2oc(-c3ccc(F)cc3)c(C(=O)NC)c2cc1-c1ccccc1)S(C)(=O)=O [Example 23, 6-[(2-ethylbutyl) (methylsulfonyl)amino]-2-(4-fluorophenyl)-N-methyl-5-phenyl-1-benzofuran-3-carboxamide] | 374 |
| CCCCCCN(c1cc2oc(-c3ccc(F)cc3)c(C(=O)NC)c2cc1-c1ccccc1)S(C)(=O)=O [Example 24, 2-(4-fluorophenyl)-6-[hexyl (methylsulfonyl)amino]-N-methyl-5-phenyl-1-benzofuran-3-carboxamide] | 182 |
| CNC(=O)c1c(-c2ccc(F)cc2)oc2cc(N(CCCC(C)C)S(C)(=O)=O)c(-c3ccccc3)cc12 [Example 25, 2-(4-fluorophenyl)-N-methyl-6-[(4-methylpentyl) (methylsulfonyl)amino]-5-phenyl-1-benzofuran-3-carboxamide] | 166 |
| CNC(=O)c1c(-c2ccc(F)cc2)oc2cc(N(CCC3CCCCC3)S(C)(=O)=O)c(-c3ccccc3)cc12 [Example 27, 6-[(2-cyclohexylethyl) (methylsulfonyl)amino]-2-(4-fluorophenyl)-N-methyl-5-phenyl-1-benzofuran-3-carboxamide] | 384 |
| CNC(=O)c1c(-c2ccc(F)cc2)oc2cc(N(CCCO)S(C)(=O)=O)c(-c3ccccc3)cc12 [Example 28, 2-(4-fluorophenyl)-6-[(3-hydroxypropyl) (methylsulfonyl)amino]-N-methyl-5-phenyl-1-benzofuran-3-carboxamide] | 46 |
| CNC(=O)c1c(-c2ccc(F)cc2)oc2cc(N(CC(C)O)S(C)(=O)=O)c(-c3ccccc3)cc12 (stereo not drawn) [Example 29, 2-(4-fluorophenyl)-6-[(2-hydroxypropyl) (methylsulfonyl)amino]-N-methyl-5-phenyl-1-benzofuran-3-carboxamidc] | 412 |
| CNC(=O)c1c(-c2ccc(F)cc2)oc2cc(N(CCCCOC(C)=O)S(C)(=O)=O)c(-c3ccccc3)cc12 [Example 30, 4-{[2-(4-fluorophenyl)-3-(methylcarbamoyl)-5-phenyl-1-benzofuran-6-yl] (methylsulfonyl)amino}butyl acetate] | 40 |
| C#CCN(c1cc2oc(-c3ccc(F)cc3)c(C(=O)NC)c2cc1-c1ccccc1)S(C)(=O)=O [Example 34, 2-(4-fluorophenyl)-N-methyl-6-[(methylsulfonyl) (prop-2-yn-1-yl)amino]-5-phenyl-1-benzofuran-3-carboxamide] | 189 |
| C=CCN(c1cc2oc(-c3ccc(F)cc3)c(C(=O)NC)c2cc1-c1ccccc1)S(C)(=O)=O [Example 35, 2-(4-fluorophenyl)-N-methyl-6-[(methylsulfonyl) (prop-2-en-1-yl)amino]-5-phenyl-1-benzofuran-3-carboxamide] | 7 |
| CNC(=O)c1c(-c2ccc(F)cc2)oc2cc(N(CCC=C(C)C)S(C)(=O)=O)c(-c3ccccc3)cc12 [Example 40, 2-(4-fluorophenyl)-N-methyl-6-[(4-methylpent-3-en-1-yl)(methylsulfonyl)amino]-5-phenyl-1-benzofuran-3-carboxamide] | 90 |
| CCOC(=O)CN(c1cc2oc(-c3ccc(F)cc3)c(C(=O)NC)c2cc1-c1ccccc1)S(C)(=O)=O [Example 41, ethyl N-[2-(4-fluorophenyl)-3-(methylcarbamoyl)-5-phenyl-1-benzofuran-6-yl]-N-(methylsulfonyl) glycinate] | > 2000 |
| CCOC(=O)CCCN(c1cc2oc(-c3ccc(F)cc3)c(C(=O)NC)c2cc1-c1ccccc1)S(C)(=O)=O [Example 42, ethyl 4-{[2-(4-fluorophenyl)-3-(methylcarbamoyl)-5-phenyl-1-benzofuran-6-yl](methylsulfonyl)amino}butanoate] | 60 |
| CNC(=O)c1c(-c2ccc(F)cc2)oc2cc(N(Cc3cccc(F)c3)S(C)(=O)=O)c(-c3ccccc3)cc12 [Example 53, 6-[(3-fluorobenzyl)(methyl-sulfonyl)amino]-2-(4-fluorophenyl)-N-methyl-5-phenyl-1-benzofuran-3-carboxamide] | 373 |
| CNC(=O)c1c(-c2ccc(F)cc2)oc2cc(NC(C)c3ccccc3)c(-c3ccccc3)cc12 (stereo not drawn) [Example 69, 2-(4-fluorophenyl)-N-methyl-5-phenyl-6-[(1-phenylethyl)amino]-1-benzofuran-3-carboxamide] | > 3000 |
| CNC(=O)c1c(-c2ccc(F)cc2)oc2cc(NCCN(C)c3ccccc3)c(-c3ccccc3)cc12 [Example 70, 2-(4-fluorophenyl)-N-methyl-6-({2-[methyl(phenyl)amino]ethyl}amino)-5-phenyl-1-benzofuran-3-carboxamide] | 329 |
| CNC(=O)c1c(-c2ccc(F)cc2)oc2cc(N(C)C(C)c3ccccc3)c(-c3ccccc3)cc12 (stereo not drawn) [Example 71, 2-(4-fluorophenyl)-N-methyl-6-[methyl(1-phenylethyl)amino]-5-phenyl-1-benzofuran-3-carboxamide] | > 2500 |
| CCOC(=O)N(CCN(C)c1ccccc1)c1cc2oc(-c3ccc(F)cc3)c(C(=O)NC)c2cc1-c1ccccc1 [Example 72, ethyl[2-(4-fluorophenyl)-3-(methylcarbamoyl)-5-phenyl-1-benzofuran-6-yl]{2-[methyl(phenyl)amino]ethyl}carbamate] | 2670 |
| CNC(=O)c1c(-c2ccc(F)cc2)oc2cc(NC(=O)CN(C)c3ccccc3)c(-c3ccccc3)cc12 [Example 73] | 143 |
| CNC(=O)c1c(-c2ccc(F)cc2)oc2cc(N(C)C(=O)CN(C)c3ccccc3)c(-c3ccccc3)cc12 [Example 74, 2-(4-fluorophenyl)-N-methyl-6-[methyl(N-methyl-N-phenylglycyl)amino]-5-phenyl-1-benzofuran-3-carboxamide] | 395 |
| CNC(=O)c1c(-c2ccc(F)cc2)oc2cc(N3C(=O)O[C@H](c4ccccc4)[C@@H]3C)c(-c3ccccc3)cc12 [Example 77, 2-(4-fluorophenyl)-N-methyl-6-[(4S,5R)-4-methyl-2-oxo-5-phenyl-1,3-oxazolidin-3-yl]-5-phenyl-1-benzofuran-3-carboxamide] | 101 |
| CNC(=O)c1c(-c2ccc(F)cc2)oc2cc(N(C)S(C)(=O)=O)c(-c3ccccc3F)cc12 [Example 78, 5-(2-fluorophenyl)-2-(4-fluorophenyl)-N-methyl-6-[methyl(methylsulfonyl)amino]-1-benzofuran-3-carboxamide] | 215 |
